Assays:
Conditions in all cases: incubation time: 72 h
BT-474 [1] = test: normalised viability (% of control), CellTiter-Blue; higher = more viable cells (100 = DMSO, 0 = benzethonium chloride kill control)
Experimental: (§1)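 DSRT, CellTiter-Blue viability, 72 h incubation. Signal is normalised to DMSO and benzethonium chloride controls. Value is the normalised response at dose 1.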

CAL-120 [2] = test: as above
Experimental: as §1

SK-BR-3 [3] = test: as above
Experimental: as §1

HCC1143 [4] = test: as above
Experimental: as §1

CAL-85-1 [5] = test: as above
Experimental: as §1

HCC1599 [6] = test: as above
Experimental: as §1

MDA-MB-231 [7] = test: as above
Experimental: as §1

MDA-MB-453 [8] = test: as above
Experimental: as §1

MDA-MB-468 [9] = test: as above
Experimental: as §1

CAL-51 [10] = test: as above
Experimental: as §1

MDA-MB-436 [11] = test: as above
Experimental: as §1

MFM-223 [12] = test: as above
Experimental: as §1

Hs578T [13] = test: as above
Experimental: as §1

BT-549 [14] = test: as above
Experimental: as §1

HDQ-P1 [15] = test: as above
Experimental: as §1

CAL-148 [16] = test: as above
Experimental: as §1

DU-4475 [17] = test: as above
Experimental: as §1

HCC1937 [18] = test: as above
Experimental: as §1

BT-474 [19] = test: normalised response (% of control), CellTiter-Glo; higher = more viable cells (100 = DMSO, 0 = benzethonium chloride kill control)
Method in brief: (§2)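 In 384-well plates holding compound at 5 concentrations in 10-fold steps over a 10,000-fold range specific to each compound, breast cancer cell lines were seeded as 20 µl suspension and incubated 72 h. CellTox Green fluorescence was measured at 485/520 nm, after which CellTiter-Glo luminescence was measured following 10 min at room temperature. Plate signals were normalised to 0.1 % DMSO (100) and a positive kill control (0), and each value is the normalised signal at a single concentration.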

CAL-120 [20] = test: as above
Method in brief: as §2

SK-BR-3 [21] = test: as above
Method in brief: as §2

HCC1143 [22] = test: as above
Method in brief: as §2

CAL-85-1 [23] = test: as above
Method in brief: as §2

MCF-10A = test: as above
Method in brief: as §2

HCC1599 [24] = test: as above
Method in brief: as §2

MDA-MB-231 [25] = test: as above
Method in brief: as §2

MDA-MB-453 [26] = test: as above
Method in brief: as §2

MDA-MB-468 [27] = test: as above
Method in brief: as §2

CAL-51 [28] = test: as above
Method in brief: as §2

MDA-MB-436 [29] = test: as above
Method in brief: as §2

MFM-223 [30] = test: as above
Method in brief: as §2

Hs578T [31] = test: as above
Method in brief: as §2

BT-549 [32] = test: as above
Method in brief: as §2

HDQ-P1 [33] = test: as above
Method in brief: as §2

CAL-148 [34] = test: as above
Method in brief: as §2

DU-4475 [35] = test: as above
Method in brief: as §2

HCC1937 [36] = test: as above
Method in brief: as §2

SMILES	normalised viability (BT-474 [1]) [%]	normalised viability (CAL-120 [2]) [%]	normalised viability (SK-BR-3 [3]) [%]	normalised viability (HCC1143 [4]) [%]	normalised viability (CAL-85-1 [5]) [%]	normalised viability (HCC1599 [6]) [%]	normalised viability (MDA-MB-231 [7]) [%]	normalised viability (MDA-MB-453 [8]) [%]	normalised viability (MDA-MB-468 [9]) [%]	normalised viability (CAL-51 [10]) [%]	normalised viability (MDA-MB-436 [11]) [%]	normalised viability (MFM-223 [12]) [%]	normalised viability (Hs578T [13]) [%]	normalised viability (BT-549 [14]) [%]	normalised viability (HDQ-P1 [15]) [%]	normalised viability (CAL-148 [16]) [%]	normalised viability (DU-4475 [17]) [%]	normalised viability (HCC1937 [18]) [%]	normalised response (BT-474 [19]) [%]	normalised response (CAL-120 [20]) [%]	normalised response (SK-BR-3 [21]) [%]	normalised response (HCC1143 [22]) [%]	normalised response (CAL-85-1 [23]) [%]	normalised response (MCF-10A) [%]	normalised response (HCC1599 [24]) [%]	normalised response (MDA-MB-231 [25]) [%]	normalised response (MDA-MB-453 [26]) [%]	normalised response (MDA-MB-468 [27]) [%]	normalised response (CAL-51 [28]) [%]	normalised response (MDA-MB-436 [29]) [%]	normalised response (MFM-223 [30]) [%]	normalised response (Hs578T [31]) [%]	normalised response (BT-549 [32]) [%]	normalised response (HDQ-P1 [33]) [%]	normalised response (CAL-148 [34]) [%]	normalised response (DU-4475 [35]) [%]	normalised response (HCC1937 [36]) [%]
COc1cccc2c1C(=O)c1c(O)c3c(c(O)c1C2=O)C[C@@](O)(C(=O)CO)C[C@@H]3O[C@H]1C[C@H](N)[C@H](O)[C@H](C)O1 [Doxorubicin] (0.1 nM)	79.6	86.9	90.3	91.2	84.6	82.8	96.8	102	104	102	112	95.6	110	95	98.5	97.8	102	86.4	107	100	107	102	105	98.8	119	105	120	103	99.3	101	104	101	105	102	103	104	101
Cc1ccc(F)c(NC(=O)Nc2ccc(-c3cccc4[nH]nc(N)c34)cc2)c1 [Linifanib] (0.1 nM)	116	95.4	107	116	94.7	110	100	112	130	101	149	103	99.3	109	115	117	110	92.4	107	101	112	100	98.8	105	115	102	122	102	105	107	105	100	97	102	112	105	102
S=c1[nH]cnc2nc[nH]c12 [Mercaptopurine] (1 nM)	105	96.6	104	97.6	84	97.3	103	105	98.7	104	80.8	95.9	130	107	106	116	101	93.6	90.2	99.5	95.7	97.8	96.9	95.3	98.9	98.2	109	90.8	122	97.2	97.3	103	108	108	91.3	92.4	99.8
Clc1ccc(C(c2ccccc2Cl)C(Cl)Cl)cc1 (stereo unspecified) [Mitotane] (1 nM)	89.9	99.2	101	98	92.4	112	99	107	108	111	90.9	95.1	118	103	112	117	104	83.8	90.7	95.2	95.4	101	95.5	94.9	103	93.6	96	96.4	109	85.8	97.7	102	108	97.8	99.4	95.3	94.5
COc1cccc2cc(-c3nc([C@H]4CC[C@H](C(=O)O)CC4)n4ncnc(N)c34)[nH]c12 [OSI-027] (1 nM)	85.3	96.8	86.9	105	100	110	83.6	88.8	90.7	90.3	93.8	95.9	118	93.9	76.9	96.1	87.8	88.9	95.8	102	91.1	92.8	101	91.4	101	93.9	95.4	90.1	88	86.8	90.5	97.9	95.5	96.3	98.7	91.7	97.1
OC[C@H]1O[C@@H](n2cnc3c2N=CNC[C@H]3O)C[C@@H]1O [Pentostatin] (1 nM)	82.4	114	86.8	96.9	99.5	114	96.6	110	105	89.3	99	93.2	109	91.7	108	118	102	81.8	98.7	96.7	108	103	94.8	107	121	98.8	107	101	111	83.4	99.8	98.4	93.8	100	104	103	100
N#CC[C@H](C1CCCC1)n1cc(-c2ncnc3[nH]ccc23)cn1 [Ruxolitinib] (1 nM)	98.2	106	101	101	114	101	82.5	101	96.6	89.4	96.9	98.8	102	89.9	85.7	94.5	104	102	96.8	93.8	83.5	93.1	101	82	93.5	102	94.4	101	120	86.7	90.1	95.8	102	93.5	92.8	91.9	92.8
C=CC[C@@H]1/C=C(\C)C[C@H](C)C[C@H](OC)[C@H]2O[C@@](O)(C(=O)C(=O)N3CCCC[C@H]3C(=O)O[C@H](/C(C)=C/[C@@H]3CC[C@@H](O)[C@H](OC)C3)[C@H](C)[C@@H](O)CC1=O)[C@H](C)C[C@@H]2OC [Tacrolimus] (1 nM)	71	111	98.2	109	98.6	99.3	102	107	110	105	119	116	106	109	114	110	98.5	102	101	98	109	93.9	97.8	106	103	99.3	110	98.7	93.1	103	98.5	99.1	96.6	118	103	102	98.8

Reference: the supplement of paper PMC4862054
